Test results as given in the NIST ThermoML archive (doi:10.1021/acs.jced.6b00221).

Tests used:
[1] = Liquid, Ebulliometric method (Recirculating still)
[2] = Boiling temperature at pressure P; conditions: Liquid, Ebulliometric method (Recirculating still)

CC(=O)OCC(C)C [2-methylpropyl ethanoate]
Conditions | Boiling temperature at pressure P [°C] | vapor or sublimation pressure [kPa]
[1], 367.51 K | – | 50
[1], 388.93 K | – | 100
[1], 389.37 K | – | 100
[1], 403.22 K | – | 150
[1], 403.64 K | – | 150
[2], 39.99 kPa | 88 | –
[2], 49.98 kPa | 94.26 | –
[2], 59.99 kPa | 99.74 | –
[2], 70 kPa | 104.24 | –
[2], 80 kPa | 108.43 | –
[2], 90 kPa | 112.39 | –
[2], 100 kPa | 116.22 | –
[2], 110 kPa | 119.20 | –
[2], 120 kPa | 122.11 | –
[2], 130 kPa | 125.01 | –
[2], 140 kPa | 127.69 | –
[2], 150 kPa | 130.49 | –

CC(=O)OCCC(C)C [3-methylbutyl ethanoate]
Conditions | Boiling temperature at pressure P [°C] | vapor or sublimation pressure [kPa]
[1], 413.99 K | – | 100
[2], 20 kPa | 92.14 | –
[2], 29.98 kPa | 102.91 | –
[2], 40.01 kPa | 111.16 | –
[2], 49.99 kPa | 117.92 | –
[2], 60 kPa | 123.61 | –
[2], 70 kPa | 128.57 | –
[2], 80.01 kPa | 133.03 | –
[2], 90 kPa | 137.09 | –
[2], 100.01 kPa | 140.8 | –
[2], 110 kPa | 144.00 | –
[2], 119.99 kPa | 147.28 | –
[2], 130 kPa | 150.31 | –
[2], 139.99 kPa | 153.18 | –
[2], 149.99 kPa | 155.90 | –
[2], 160.01 kPa | 158.46 | –

CCOC(C)=O [ethyl acetate]
Conditions | Boiling temperature at pressure P [°C] | vapor or sublimation pressure [kPa]
[1], 330.41 K | – | 50
[1], 349.7 K | – | 100
[1], 362.48 K | – | 150
[2], 54.99 kPa | 59.67 | –
[2], 59.98 kPa | 62.01 | –
[2], 70 kPa | 66.27 | –
[2], 75 kPa | 67.77 | –
[2], 80 kPa | 70.03 | –
[2], 84.99 kPa | 71.78 | –
[2], 89.91 kPa | 73.43 | –
[2], 95.01 kPa | 75.1 | –
[2], 101.33 kPa | 77.01 | –
[2], 104.99 kPa | 78.11 | –
[2], 109.98 kPa | 79.52 | –
[2], 119.9 kPa | 82.21 | –
[2], 124.98 kPa | 83.47 | –
[2], 129.93 kPa | 84.71 | –
[2], 134.95 kPa | 85.93 | –
[2], 139.96 kPa | 87.09 | –
[2], 149.95 kPa | 89.33 | –
[2], 154.97 kPa | 90.41 | –
[2], 159.96 kPa | 91.5 | –
[2], 164.99 kPa | 92.49 | –
[2], 174.99 kPa | 94.46 | –
[2], 180 kPa | 95.43 | –
[2], 185 kPa | 96.4 | –
